Measurements taken from patent US10449269B2, “Particle conjugated prosthetic patches and methods of making and using thereof” (Yale University, priority 2016, dated 2019).

Columns and labels:
[1] = tested on: TGF-β1-induced collagen Iα1 mRNA; details: cited from earlier work
[2] = tested on: TGF-β1-induced PAI-1 mRNA; details: cited from earlier work
[3] = target: T1, nodal type I receptor ALK7 (Homo sapiens, UniProt Q8NER5); details: cited from earlier work
T1 sequence (Q8NER5 21-493): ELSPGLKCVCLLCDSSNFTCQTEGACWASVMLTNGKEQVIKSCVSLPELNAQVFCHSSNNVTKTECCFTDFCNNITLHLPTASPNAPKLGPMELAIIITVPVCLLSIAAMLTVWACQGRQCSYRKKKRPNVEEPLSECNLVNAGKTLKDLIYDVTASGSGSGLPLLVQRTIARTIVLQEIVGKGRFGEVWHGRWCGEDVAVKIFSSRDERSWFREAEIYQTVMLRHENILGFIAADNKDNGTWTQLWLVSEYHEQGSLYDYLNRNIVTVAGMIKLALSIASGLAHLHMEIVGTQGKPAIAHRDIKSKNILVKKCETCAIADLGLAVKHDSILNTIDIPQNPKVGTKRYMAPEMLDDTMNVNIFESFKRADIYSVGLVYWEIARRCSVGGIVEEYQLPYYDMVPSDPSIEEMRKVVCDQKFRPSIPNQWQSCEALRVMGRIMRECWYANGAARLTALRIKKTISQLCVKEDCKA

[4] = tested on: TGF-β1-induced fibronectin protein; details: cited from earlier work
[5] = tested on: TGF-β1-induced fibronectin mRNA; details: cited from earlier work
[6] = TGF-β1 release from NP patches in PBS (Micro BCA); format: physicochemical; details: in vitro
Procedure: Pericardial patches were covalently modified using NP loaded with TGF-β1. TGF-β1 (4 μg) was dissolved in PBS (200 μL) and added to chloroform (2 mL) containing carboxylated poly(lactic-coglycolic acid) (PLGA) (100 mg). The mixture was then added drop-wise to 5% polyvinyl alcohol (PVA) (4 mL) and sonicated three times to form NP. The NP were dispersed in 0.2% PVA solution (200 mL) to evaporate the solvent for 2 h while stirring (40 ng TGF-β1/mg NP, […]). Patches (7 mm×5 mm) were conjugated with the NP using ethyl (dimethylaminopropyl) carbodiimide/N-hydroxysuccinimide (EDC/NHS) chemistry, as discussed above. EDC (20 μmol/mL) and NHS (10 μmol/mL) were dissolved in MES solution (0.1 M; pH 5) for the conjugation. Carboxyl groups on the NP were activated using EDC (1 mL) for 30 min and substituted with NHS by adding NHS (1 mL) for 30 min. The solution pH was raised from 5 to 8 using NaOH (1 M). Patches were then placed into the activated NP suspension and incubated at 37° C. overnight. To assess TGF-β1 release from NP patches in vitro, the patches were incubated in PBS at 37° C. The supernatant was collected at the desired time points and used to quantify TGF-β1 using a Micro BCA Protein Assay Kit (Thermo Fisher Scientific).

## NC(=O)c1ccc(-c2nc(-c3ccc4c(c3)OCO4)c(-c3ccccn3)[nH]2)cc1 [SB 431542]
[1]
  IC50: 0.06 µM
[2]
  IC50: 0.05 µM
[3]
  inhibition of ALK7: inhibits
[4]
  IC50: 0.022 µM
[5]
  IC50: 0.062 µM

## TGF β1: polypeptide member of the transforming growth factor beta superfamily of cytokines
[6]
  duration of sustained release of TGF-β1: 2-3 weeks
  period in which cumulative release was highest (first days): 5 days
  time until which release slowly decreased: 21 days
